What was measured:
BACE2 = BACE2 (Homo sapiens (Human), UniProt Q9Y5Z0); assay: In vitro enzymatic BACE2 FRET assay; assay type: biochemical; conditions: read-out: IC50 IP (μM) BACE2 Enzyme
Excerpt: In Vitro Enzymatic BACE1 and BACE2 FRET (Fluorescence Resonance Energy Transfer) Assays (Enzyme Assay Data in Table 1)

Cathepsin D (CatD) = Cathepsin D (CatD) (Homo sapiens (Human), UniProt P07339); assay: CatD assay; assay type: biochemical; conditions: read-out: IC50 IP (μM) CatD
Cathepsin D (CatD), sequence (P07339 65-412, species assumed): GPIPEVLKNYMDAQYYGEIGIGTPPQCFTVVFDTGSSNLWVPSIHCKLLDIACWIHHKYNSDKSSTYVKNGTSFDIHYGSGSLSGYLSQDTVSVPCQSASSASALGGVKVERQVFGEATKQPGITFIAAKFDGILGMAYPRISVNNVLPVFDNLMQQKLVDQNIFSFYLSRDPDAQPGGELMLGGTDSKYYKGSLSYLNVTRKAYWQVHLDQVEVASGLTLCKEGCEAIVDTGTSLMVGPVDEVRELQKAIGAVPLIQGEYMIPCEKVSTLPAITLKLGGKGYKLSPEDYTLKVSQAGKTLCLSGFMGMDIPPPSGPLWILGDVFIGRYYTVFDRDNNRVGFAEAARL

BACE2, sequence (Q9Y5Z0 63-518): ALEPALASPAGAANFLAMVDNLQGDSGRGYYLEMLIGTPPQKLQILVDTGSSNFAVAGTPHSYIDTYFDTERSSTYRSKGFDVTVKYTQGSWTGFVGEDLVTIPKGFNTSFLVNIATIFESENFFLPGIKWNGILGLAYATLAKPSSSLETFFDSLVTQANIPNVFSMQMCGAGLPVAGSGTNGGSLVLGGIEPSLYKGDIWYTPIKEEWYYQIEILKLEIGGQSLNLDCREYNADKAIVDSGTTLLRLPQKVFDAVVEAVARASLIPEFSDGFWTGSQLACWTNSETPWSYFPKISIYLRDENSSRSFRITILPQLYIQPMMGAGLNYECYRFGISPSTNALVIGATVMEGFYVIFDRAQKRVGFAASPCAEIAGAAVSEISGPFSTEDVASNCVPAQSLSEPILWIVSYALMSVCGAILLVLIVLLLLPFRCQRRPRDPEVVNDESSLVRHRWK

SMILES | IC50 (BACE2) [µM] | IC50 (Cathepsin D (CatD)) [µM]
C[C@]1(c2cc(/C=C(\F)c3cnc(N4CCC4)cn3)ccc2F)N=C(N)S[C@@]2(C(=O)N3CCOCC3)C[C@H]21 [Example 351, ((1S,5S,6S)-3-amino-5-(5-((Z)-2-(5-(azetidin-1-yl)pyrazin-2-yl)-2-fluorovinyl)-2-fluorophenyl)-5-methyl-2-thia-4-azabicyclo[4.1.0]hept-3-en-1-yl)(morpholino)methanone] | 1.56 | 52.6
COC[C@]12C[C@H]1[C@@](C)(c1cc(/C=C(\F)c3cnc(OCCC(F)(F)F)cn3)ccc1F)N=C(N)S2 [Example 268] | 1.55 | 245
CN(C)C(=O)[C@]12C[C@H]1[C@@](C)(c1cc(/C=C(\F)c3cc4nccnc4cn3)ccc1F)N=C(N)S2 [Example 247, (1S,5S,6S)-3-amino-5-(2-fluoro-5-((Z)-2-fluoro-2-(pyrido[3,4-b]pyrazin-7-yl)vinyl)phenyl)-N,N,5-trimethyl-2-thia-4-azabicyclo[4.1.0]hept-3-ene-1-carboxamide] | 0.385 | 1190
COC[C@]12C[C@H]1[C@@](C)(c1cc(/C=C(\F)c3cnc(OCC4CCO4)cn3)ccc1F)N=C(N)S2 (stereo partly shown) [Example 273] | 5.11 | 647
C[C@]1(c2cc(/C=C(\F)c3cnc(Cl)cn3)ccc2F)N=C(N)S[C@]2(CO)[C@H]1C2(F)F [Example 252, ((1S,5S,6R)-3-amino-5-(5-((Z)-2-(5-chloropyrazin-2-yl)-2-fluorovinyl)-2-fluorophenyl)-7,7-difluoro-5-methyl-2-thia-4-azabicyclo[4.1.0]hept-3-en-1-yl)methanol] | 0.151 | 158
Cc1nnc(COc2cnc(/C(F)=C/c3ccc(F)c([C@@]4(C)N=C(N)S[C@@]5(S(C)(=O)=O)C[C@H]54)c3)cn2)o1 [Example 228, (1R,5S,6S)-5-(2-fluoro-5-((Z)-2-fluoro-2-(5-((5-methyl-1,3,4-oxadiazol-2-yl)methoxy)pyrazin-2-yl)vinyl)phenyl)-5-methyl-1-(methylsulfonyl)-2-thia-4-azabicyclo[4.1.0]hept-3-en-3-amine] | 0.292 | 46.3
COC[C@]12C[C@H]1[C@@](C)(c1cc(/C=C(\F)c3cnc(OCC4CC(F)(F)C4)cn3)ccc1F)N=C(N)S2 [Example 278] | 1.32 | 199
CN(C)C(=O)[C@]12C[C@H]1[C@@](C)(c1cc(/C=C(\F)c3ccc(C#N)nn3)ccc1F)N=C(N)S2 [Example 174, (1S,5S,6S)-3-amino-5-(5-((Z)-2-(6-cyanopyridazin-3-yl)-2-fluorovinyl)-2-fluorophenyl)-N,N,5-trimethyl-2-thia-4-azabicyclo[4.1.0]hept-3-ene-1-carboxamide] | 0.406 | 280
C#CCOc1cnc(/C(F)=C/c2ccc(F)c([C@@]3(C)N=C(N)S[C@@]4(COC)C[C@H]43)c2)cn1 [Example 262, (1S,5S,6S)-5-(2-fluoro-5-((Z)-2-fluoro-2-(5-(prop-2-yn-1-yloxy)pyrazin-2-yl)vinyl)phenyl)-1-(methoxymethyl)-5-methyl-2-thia-4-azabicyclo[4.1.0]hept-3-en-3-amine] | 0.694 | 317
COC[C@]12C[C@H]1[C@@](C)(c1cc(/C=C(\F)c3cnc(OCC4CCC4)cn3)ccc1F)N=C(N)S2 [Example 271] | 1.84 | 120
COC[C@]12C[C@H]1[C@@](C)(c1cc(/C=C(\F)c3cnc(OCc4cc(C)no4)cn3)ccc1F)N=C(N)S2 [Example 276] | 0.966 | 156
C#CCOc1cnc(/C(F)=C/c2ccc(F)c([C@@]3(C)N=C(N)S[C@@]4(C(=O)N(C)C)C[C@H]43)c2)cn1 [Example 153, (1S,5S,6S)-3-amino-5-(2-fluoro-5-((Z)-2-fluoro-2-(5-(prop-2-yn-1-yloxy)pyrazin-2-yl)vinyl)phenyl)-N,N,5-trimethyl-2-thia-4-azabicyclo[4.1.0]hept-3-ene-1-carboxamide] | 0.0518 | 106
COC[C@@]12SC(N)=N[C@](C)(c3cc(/C=C(\F)c4ccc(C#N)cn4)ccc3F)[C@@H]1C2(F)F [Example 258, 6-((Z)-2-(3-((1S,5S,6R)-3-amino-7,7-difluoro-1-(methoxymethyl)-5-methyl-2-thia-4-azabicyclo[4.1.0]hept-3-en-5-yl)-4-fluorophenyl)-1-fluorovinyl)nicotinonitrile] | 0.118 | 90.7
CN(C)C(=O)[C@]12C[C@H]1[C@@](C)(c1cc(/C=C(\F)c3cnc(OCC(F)(F)F)cn3)cnc1F)N=C(N)S2 [Example 282, (1S,5S,6S)-3-amino-5-(2-fluoro-5-((Z)-2-fluoro-2-(5-(2,2,2-trifluoroethoxy)pyrazin-2-yl)vinyl)pyridin-3-yl)-N,N,5-trimethyl-2-thia-4-azabicyclo[4.1.0]hept-3-ene-1-carboxamide] | 0.125 | 287

Continued by falling IC50 (BACE2), values first:

IC50 (BACE2) [µM] | IC50 (Cathepsin D (CatD)) [µM] | SMILES
0.117 | 9.28 | CN(C)C(=O)[C@]12C[C@H]1[C@@](C)(c1cc(/C=C\F)ccc1F)N=C(N)S2 [Example 208, (1S,5S,6S)-3-amino-5-(2-fluoro-5-((Z)-2-fluorovinyl)phenyl)-N,N,5-trimethyl-2-thia-4-azabicyclo[4.1.0]hept-3-ene-1-carboxamide]
0.115 | 84.1 | C[C@]1(c2cc(/C=C(\F)c3ccc(C#N)cn3)cnc2F)N=C(N)S[C@@]2(C(=O)N3CCC(F)(F)CC3)C[C@H]21 [Example 260, 6-((Z)-2-(5-((1S,5S,6S)-3-amino-1-(4,4-difluoropiperidine-1-carbonyl)-5-methyl-2-thia-4-azabicyclo[4.1.0]hept-3-en-5-yl)-6-fluoropyridin-3-yl)-1-fluorovinyl)nicotinonitrile]
0.099 | 146 | C[C@@H]1CC[C@@H](C)N1C(=O)[C@]12C[C@H]1[C@@](C)(c1cc(/C=C(\F)c3ccc(C#N)cn3)ccc1F)N=C(N)S2 [Example 133, 6-((Z)-2-(3-((1S,5S,6S)-3-amino-1-((2R,5R)-2,5-dimethylpyrrolidine-1-carbonyl)-5-methyl-2-thia-4-azabicyclo[4.1.0]hept-3-en-5-yl)-4-fluorophenyl)-1-fluorovinyl)nicotinonitrile]
0.0758 | 1690 | C[C@]1(c2cc(/C=C(\F)c3ccc(C#N)cn3)ccc2F)N=C(N)S[C@@]2(C(=O)N3CC4CC3CO4)C[C@H]21 (stereo partly drawn) [Example 132, 6-((Z)-2-(3-((1S,5S,6S)-3-amino-1-(2-oxa-5-azabicyclo[2.2.1]heptane-5-carbonyl)-5-methyl-2-thia-4-azabicyclo[4.1.0]hept-3-en-5-yl)-4-fluorophenyl)-1-fluorovinyl)nicotinonitrile]
0.041 | 434 | C[C@@]1(O)CCN(C(=O)[C@]23C[C@H]2[C@@](C)(c2cc(/C=C(\F)c4ccc(C#N)cn4)ccc2F)N=C(N)S3)C1 (single isomer, unassigned) [Example 310]
0.0364 | 204 | CNC(=O)[C@]12C[C@H]1[C@@](C)(c1cc(/C=C(\F)c3ccc(Cl)cn3)ccc1F)N=C(N)S2 [Example 175, (1S,5S,6S)-3-amino-5-(5-((Z)-2-(5-chloropyridin-2-yl)-2-fluorovinyl)-2-fluorophenyl)-N,5-dimethyl-2-thia-4-azabicyclo[4.1.0]hept-3-ene-1-carboxamide]
0.0282 | 400 | C[C@]1(c2cc(/C=C(\F)c3ccc(C#N)cn3)ccc2F)N=C(N)S[C@@]2(C(=O)N3CCNC(=O)C3)C[C@H]21 [Example 144, 6-((Z)-2-(3-((1S,5S,6S)-3-amino-5-methyl-1-(3-oxopiperazine-1-carbonyl)-2-thia-4-azabicyclo[4.1.0]hept-3-en-5-yl)-4-fluorophenyl)-1-fluorovinyl)nicotinonitrile]
0.0209 | 166 | COC[C@@H]1CCCN1C(=O)[C@]12C[C@H]1[C@@](C)(c1cc(/C=C(\F)c3ccc(Cl)cn3)ccc1F)N=C(N)S2 [Example 117, ((1S,5S,6S)-3-amino-5-(5-((Z)-2-(5-chloropyridin-2-yl)-2-fluorovinyl)-2-fluorophenyl)-5-methyl-2-thia-4-azabicyclo[4.1.0]hept-3-en-1-yl)((S)-2-(methoxymethyl)pyrrolidin-1-yl)methanone]
0.015 | 96.9 | C[C@]1(c2cc(/C=C(\F)c3ccc(C#N)cn3)ccc2F)N=C(N)S[C@@]2(C(=O)N3CCN(c4ccccc4)CC3)C[C@H]21 [Example 131, 6-((Z)-2-(3-((1S,5S,6S)-3-amino-5-methyl-1-(4-phenylpiperazine-1-carbonyl)-2-thia-4-azabicyclo[4.1.0]hept-3-en-5-yl)-4-fluorophenyl)-1-fluorovinyl)nicotinonitrile]
0.007 | 401 | C[C@]1(O)CCN(C(=O)[C@]23C[C@H]2[C@@](C)(c2cc(/C=C(\F)c4ccc(C#N)cn4)ccc2F)N=C(N)S3)C1 [Example 309, 6-((Z)-2-(3-((1S,5S,6S)-3-amino-1-((S)-3-hydroxy-3-methylpyrrolidine-1-carbonyl)-5-methyl-2-thia-4-azabicyclo[4.1.0]hept-3-en-5-yl)-4-fluorophenyl)-1-fluorovinyl)nicotinonitrile]
0.00257 | 81.5 | C[C@]1(c2cc(/C=C(\F)c3ccc(C#N)cn3)ccc2F)N=C(N)S[C@@]2(C(=O)N3CCC(C(F)(F)F)CC3)C[C@H]21 [Example 139, 6-((Z)-2-(3-((1S,5S,6S)-3-amino-5-methyl-1-(4-(trifluoromethyl)piperidine-1-carbonyl)-2-thia-4-azabicyclo[4.1.0]hept-3-en-5-yl)-4-fluorophenyl)-1-fluorovinyl)nicotinonitrile]
0.00166 | 5.5 | C[C@]1(c2cc(/C=C(\F)c3ccc(C#N)cn3)ccc2F)N=C(N)S[C@@]2(C(=O)N3CC[C@@H]4CCCC[C@H]4C3)C[C@H]21 [Example 135, 6-((Z)-2-(3-((1S,5S,6S)-3-amino-1-((4aS,8aR)-decahydroisoquinoline-2-carbonyl)-5-methyl-2-thia-4-azabicyclo[4.1.0]hept-3-en-5-yl)-4-fluorophenyl)-1-fluorovinyl)nicotinonitrile]

— patent publication US10246429B2, “Vinyl fluoride cyclopropyl fused thiazin-2-amine compounds as beta-secretase inhibitors and methods of use” (AMGEN INC., priority 2015, dated 2019)
